In US12515170B2, “CO2 capture and utilization system and method” (University of Kentucky Research Foundation, priority 2021, dated 2026):

Assays:
Scenedesmus acutus [1] = details: same molar N concentration; 3% CO2; 21 days; n=3
Protocol: In parallel, an experiment was performed using urea as a control (FIG. 13, tubes 1-3).
Experiments were conducted in a temperature controlled (20-27° C.) 10 L tubular photobioreactor system (FIG. 13). An artificial light system set to a 16:8 light/dark cycle (T5 cool white fluorescent bulbs) delivered 500 micromole m^−2 s^−1 PAR of photoactive radiation. CO2 was delivered as 3% CO2/nitrogen balance from gas cylinders. The experiments ran for 21 days.
Three times a week pH, UV-vis absorbance and dry mass measurements were made.

Scenedesmus acutus [2] = test: Algae production in 800 mL bioreactors with different nitrogen sources / CO2:NH3 mole ratios; format: cell-based; details: constant gas sparging, nitrogen source compared, no unit in Table 8 (FIG. 33: productivity g/L/day)
Protocol: To Examine the effect CO2:NH3 mole ratios on Scenedesmus acutus culture health and productivity, experiments were conducted in 800 mL bioreactors with constant gas sparging and different CO2:NH3 mole ratios (ranging from 7:1 up to 18:1) (FIG. 33). The “cycles” indicated in FIG. 33 refer to growth cycles of algae. In this regard, each bioreactor is normally inoculated with algae at a low concentration (e.g., 0.1 g/LO and the algae are allowed to grow until a concentration of 1 g/L is obtained. At this point, the algae are harvested until a concentration of 0.1 g/L is left in the bioreactor (with the addition of fresh nutrients and water). The algae are allowed to grow again until a concentration of 1 g/L is again reached, followed by harvesting. Each period of growth up to harvesting is characterized as a growth cycle.

| Compound | algae growth rates by dry mass measurements versus urea control (Scenedesmus acutus [1]) | culture productivity by UV-vis absorbance at 560 nm versus urea control (Scenedesmus acutus [1]) | growth rate (Scenedesmus acutus [2]) |
| --- | --- | --- | --- |
| N.N.O=C(O)O [(NH4)2CO3, ammonium carbonate] | significantly higher than for the control | significantly more productive than the control |  |
| O=[N+]([O-])[O-].[Na+] [NaNO3] |  |  | 0.13 ± 0.05 |
| NC(N)=O [Urea, urea] |  |  | 0.11 ± 0.04 |
